Key:
Type in all cases: in vivo
weeds [1] = test: Pre-emergence test, activity against weeds
Protocol: (§1) • Solvent: 5 parts by weight of acetone • Emulsifier: 1 part by weight of alkylaryl polyglycol ether
(§2) To produce a suitable preparation of active compound, 1 part by weight of active compound is mixed with the stated amount of solvent, the stated amount of emulsifier is added and the concentrate is diluted with water to the desired concentration.
(§3) Seeds of the test plants are sown in normal soil. After about 24 hours, the soil is sprayed with the preparation of active compound such that the particular amount of active compound desired is applied per unit area. The concentration of the spray liquor is chosen so that the particular amount of active compound desired is applied in 1000 liters of water per hectare.
(§4) After three weeks, the degree of damage to the plants is rated in % damage in comparison to the development of the untreated control.
(§5) The figure denote: • 0%=no effect (like untreated control) • 100%=total destruction

weeds [2] = test: Post-emergence test, activity against weeds
Protocol: as §1
(§6) To produce a suitable preparation of active compound, one part by weight of active compound is mixed with the stated amount of solvent, the stated amount of emulsifier is added and the concentrate is diluted with water to the desired concentration.
(§7) Test plants which have a height of 5-15 cm are sprayed with the preparation of active compound such that the particular amounts of active compound desired are applied per unit area. The concentration of the spray liquor is chosen so that the particular amounts of active compound desired are applied in 1000 l of water/ha.
as §4
(§8) The figures denote: • 0%=no effect (like untreated control) • 100%=total destruction

Avenafatua = test: Post-emergence test/greenhouse; settings: greenhouse, 250 g of ai/ha, rated after three weeks
Protocol: as §1, §6, §7, §4, §8

Alopecurus [3] = test: Post-emergence test/greenhouse; settings: greenhouse, 250 g of ai/ha, rated after three weeks
Protocol: as §1, §6, §7, §4, §8

Setaria [4] = test: Post-emergence test/greenhouse; settings: greenhouse, rated after three weeks
Protocol: as §1, §6, §7, §4, §8

Abutilon [5] = test: Post-emergence test/greenhouse; settings: greenhouse, rated after three weeks
Protocol: as §1, §6, §7, §4, §8

Sinapis [6] = test: Post-emergence test/greenhouse; settings: greenhouse, 250 g of ai/ha, rated after three weeks
Protocol: as §1, §6, §7, §4, §8

Xanthium [7] = test: Post-emergence test/greenhouse; settings: greenhouse, 250 g of ai/ha, rated after three weeks
Protocol: as §1, §6, §7, §4, §8

Amaranthus [8] = test: Post-emergence test/greenhouse; settings: greenhouse, rated after three weeks
Protocol: as §1, §6, §7, §4, §8

Chenopodium = test: Pre-emergence test/greenhouse; settings: greenhouse, 60 g of ai/ha, rated after three weeks
Protocol: as §1, §2, §3, §4, §5

Bromus = test: Pre-emergence test/greenhouse; settings: greenhouse, 60 g of ai/ha, rated after three weeks
Protocol: as §1, §2, §3, §4, §5

Stellaria [9] = test: Pre-emergence test/greenhouse; settings: greenhouse, 60 g of ai/ha, rated after three weeks
Protocol: as §1, §2, §3, §4, §5

Viola = test: Pre-emergence test/greenhouse; settings: greenhouse, 60 g of ai/ha, rated after three weeks
Protocol: as §1, §2, §3, §4, §5

Cotton = test: Pre-emergence test/greenhouse; settings: greenhouse, 60 g of ai/ha, rated after three weeks
Protocol: as §1, §2, §3, §4, §5

Veronica = test: Pre-emergence test/greenhouse; settings: greenhouse, 60 g of ai/ha, rated after three weeks
Protocol: as §1, §2, §3, §4, §5

Echinochloa = test: Pre-emergence test/greenhouse; settings: greenhouse, 60 g of ai/ha, rated after three weeks
Protocol: as §1, §2, §3, §4, §5

Solanum [10] = test: Pre-emergence test/greenhouse; settings: greenhouse, 60 g of ai/ha, rated after three weeks
Protocol: as §1, §2, §3, §4, §5

Stellaria [11] = test: Post-emergence test/greenhouse; settings: greenhouse, 15 g of ai/ha, rated after three weeks
Protocol: as §1, §6, §7, §4, §8

Wheat = test: Post-emergence test/greenhouse; settings: greenhouse, 15 g of ai/ha, rated after three weeks
Protocol: as §1, §6, §7, §4, §8

Maize [12] = test: Post-emergence test/greenhouse; settings: greenhouse, 15 g of ai/ha, rated after three weeks
Protocol: as §1, §6, §7, §4, §8

Solanum [13] = test: Post-emergence test/greenhouse; settings: greenhouse, 15 g of ai/ha, rated after three weeks
Protocol: as §1, §6, §7, §4, §8

Alopecurus [14] = test: Pre-emergence test/greenhouse; settings: greenhouse, rated after three weeks
Protocol: as §1, §2, §3, §4, §5

Setaria [15] = test: Pre-emergence test/greenhouse; settings: greenhouse, rated after three weeks
Protocol: as §1, §2, §3, §4, §5

Galium = test: Pre-emergence test/greenhouse; settings: greenhouse, 250 g of ai/ha, rated after three weeks
Protocol: as §1, §2, §3, §4, §5

Abutilon [16] = test: Pre-emergence test/greenhouse; settings: greenhouse, 250 g of ai/ha, rated after three weeks
Protocol: as §1, §2, §3, §4, §5

Sinapis [17] = test: Pre-emergence test/greenhouse; settings: greenhouse, 250 g of ai/ha, rated after three weeks
Protocol: as §1, §2, §3, §4, §5

Xanthium [18] = test: Pre-emergence test/greenhouse; settings: greenhouse, 250 g of ai/ha, rated after three weeks
Protocol: as §1, §2, §3, §4, §5

Amaranthus [19] = test: Pre-emergence test/greenhouse; settings: greenhouse, rated after three weeks
Protocol: as §1, §2, §3, §4, §5

Cyperus = test: Pre-emergence test/greenhouse; settings: greenhouse, 250 g of ai/ha, rated after three weeks
Protocol: as §1, §2, §3, §4, §5

Digitaria = test: Pre-emergence test/greenhouse; settings: greenhouse, 60 g of ai/ha, rated after three weeks
Protocol: as §1, §2, §3, §4, §5

Maize [20] = test: Pre-emergence test/greenhouse; settings: greenhouse, 60 g of ai/ha, rated after three weeks
Protocol: as §1, §2, §3, §4, §5

Matricaria = test: Pre-emergence test/greenhouse; settings: greenhouse, 60 g of ai/ha, rated after three weeks
Protocol: as §1, §2, §3, §4, §5

SMILES: COC(=O)c1csc(C)c1S(=O)(=O)NC(=O)n1nc(OC(C)C)n(C2CC2)c1=O [Example 8]
- activity against weeds (weeds [1]): very strong activity
- activity against weeds (weeds [2]): very strong activity
- degree of damage to the plants, Avenafatua (Avenafatua): 100%
- degree of damage to the plants, Alopecurus (Alopecurus [3]): 100%
- degree of damage to the plants, Setaria (Setaria [4]; 250 g of ai/ha): 100%
- degree of damage to the plants, Abutilon (Abutilon [5]; 250 g of ai/ha): 100%
- degree of damage to the plants, Sinapis (Sinapis [6]): 95%
- degree of damage to the plants, Xanthium (Xanthium [7]): 100%
- degree of damage to the plants, Amaranthus (Amaranthus [8]; 250 g of ai/ha): 100%
- degree of damage to the plants, Chenopodium (Chenopodium): 90%
- degree of damage to the plants, Bromus (Bromus): 90%
- degree of damage to the plants, Stellaria (Stellaria [9]): 95%
- degree of damage to the plants, Viola (Viola): 100%
- degree of damage to the plants, Cotton (Cotton): 0%
- degree of damage to the plants, Veronica (Veronica): 95%
- degree of damage to the plants, Echinochloa (Echinochloa): 90%
- degree of damage to the plants, Solanum (Solanum [10]): 90%

SMILES: COC(=O)c1csc(C)c1S(=O)(=O)NC(=O)n1nc(C)n(C)c1=O [Example 10]
- activity against weeds (weeds [1]): very strong activity
- activity against weeds (weeds [2]): very strong activity
- degree of damage to the plants, Stellaria (Stellaria [11]): 95%
- degree of damage to the plants, Wheat (Wheat): 10%
- degree of damage to the plants, Maize (Maize [12]): 10%
- degree of damage to the plants, Setaria (Setaria [4]; 15 g of ai/ha): 95%
- degree of damage to the plants, Abutilon (Abutilon [5]; 15 g of ai/ha): 90%
- degree of damage to the plants, Amaranthus (Amaranthus [8]; 15 g of ai/ha): 90%
- degree of damage to the plants, Solanum (Solanum [13]): 90%
- degree of damage to the plants, Alopecurus (Alopecurus [14]; 250 g of ai/ha): 95%
- degree of damage to the plants, Setaria (Setaria [15]; 250 g of ai/ha): 100%
- degree of damage to the plants, Galium (Galium): 95%
- degree of damage to the plants, Abutilon (Abutilon [16]): 95%
- degree of damage to the plants, Sinapis (Sinapis [17]): 100%
- degree of damage to the plants, Xanthium (Xanthium [18]): 90%
- degree of damage to the plants, Amaranthus (Amaranthus [19]; 250 g of ai/ha): 100%
- degree of damage to the plants, Cyperus (Cyperus): 95%

SMILES: CCc1nn(C(=O)NS(=O)(=O)c2c(C(=O)OC)csc2C)c(=O)n1C [Example 11]
- activity against weeds (weeds [1]): very strong activity
- activity against weeds (weeds [2]): very strong activity
- degree of damage to the plants, Avenafatua (Avenafatua): 100%
- degree of damage to the plants, Alopecurus (Alopecurus [3]): 100%
- degree of damage to the plants, Setaria (Setaria [4]; 250 g of ai/ha): 100%
- degree of damage to the plants, Abutilon (Abutilon [5]; 250 g of ai/ha): 100%
- degree of damage to the plants, Sinapis (Sinapis [6]): 100%
- degree of damage to the plants, Xanthium (Xanthium [7]): 100%
- degree of damage to the plants, Amaranthus (Amaranthus [8]; 250 g of ai/ha): 100%
- degree of damage to the plants, Chenopodium (Chenopodium): 100%
- degree of damage to the plants, Alopecurus (Alopecurus [14]; 60 g of ai/ha): 100%
- degree of damage to the plants, Digitaria (Digitaria): 100%
- degree of damage to the plants, Maize (Maize [20]): 10%
- degree of damage to the plants, Matricaria (Matricaria): 100%
- degree of damage to the plants, Setaria (Setaria [15]; 60 g of ai/ha): 100%
- degree of damage to the plants, Amaranthus (Amaranthus [19]; 60 g of ai/ha): 100%
- degree of damage to the plants, Solanum (Solanum [10]): 100%
